Data as given in patent publication US10913738B2 (BRISTOL-MYERS SQUIBB COMPANY, priority 2017, dated 2021).
Where two headings read alike, the source gives them in different places.

Tests used:
[1] = test system: MLKL phosphorylation in HT29-L23 human colorectal adenocarcinoma cells; assay: MLKL Phosphorylation High-Content Assay; type: cell-based; details: Homo sapiens
Procedure, shortened: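 Cells incubated six hours at 37° C., then phospho-MLKL (S358) immunostained overnight at 4° C. and imaged by high-content microscopy. Phosphorylation quantified as mean circ-ring average intensity ratio; IC50 and Ymax from 4-parameter logistic fits.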

[2] = biological target: T1, His-GST-TVMV-hRIPK1(1-324) (Homo sapiens, UniProt Q13546); assay: RIPK1 HTRF Binding Assay
T1 construct: The coding region of human RIPK1(1-324) flanked by NdeI site at 5′ end; made in house; host or cells: Spodoptera frugiperda (Sf9) insect cells, baculovirus
T1 sequence (Q13546 1-324): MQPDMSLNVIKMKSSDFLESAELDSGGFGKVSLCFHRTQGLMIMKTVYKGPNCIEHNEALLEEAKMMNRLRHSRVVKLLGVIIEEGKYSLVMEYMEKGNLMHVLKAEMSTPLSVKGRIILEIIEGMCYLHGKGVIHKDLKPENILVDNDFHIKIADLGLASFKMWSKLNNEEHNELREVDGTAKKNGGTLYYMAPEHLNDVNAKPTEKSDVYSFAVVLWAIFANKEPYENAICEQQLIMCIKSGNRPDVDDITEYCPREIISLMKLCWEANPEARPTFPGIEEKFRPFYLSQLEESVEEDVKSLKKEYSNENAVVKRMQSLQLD

[3] = x marks IC50 class >200 nM, read-out: pMLKL cell activity >200 nM
[4] = x marks IC50 class 20-200 nM, read-out: RIPK1 HTRF binding 20-200 nM
[5] = x marks IC50 class 20-200 nM, read-out: pMLKL cell activity 20-200 nM
[6] = x marks IC50 class <20 nM, read-out: RIPK1 HTRF binding <20 nM
[7] = x marks IC50 class <20 nM, read-out: pMLKL cell activity <20 nM

| SMILES | IC50 [1, 3] [nM] | IC50 [2, 4] [nM] | IC50 [1, 5] [nM] | IC50 [2, 6] [nM] | IC50 [1, 7] [nM] |
| --- | --- | --- | --- | --- | --- |
| COc1nc(C)c(-c2ccn3nc(N)nc3c2)cc1C(=O)NCc1ccccc1CN1CCCCC1 [Example 358, 5-(2-amino-[1,2,4]triazolo[1,5-a]pyridin-7-yl)-2-methoxy-6-methyl-N-(2-(piperidin-1-ylmethyl)benzyl)nicotinamide] | > 200 | 20 to 200 | – | – | – |
| CC(C)Oc1c(F)cc(F)cc1CNC(=O)c1cc(-c2ccn3nc(N)nc3c2)cnc1Cl [Example 163, 5-{2-amino-[1,2,4]triazolo[1,5-a]pyridin-7-yl}-2-chloro-N-{[3,5-difluoro-2-(propan-2-yloxy)phenyl]methyl}pyridine-3-carboxamide] | – | – | 20 to 200 | < 20 | – |
| CCOc1ncc(-c2ccn3nc(N)nc3c2)cc1C(=O)NCc1ccccc1S(=O)(=O)c1ccccc1CO [Example 270, 5-{2-amino-[1,2,4]triazolo[1,5-a]pyridin-7-yl}-2-ethoxy-N-({2-[2-(hydroxymethyl)benzenesulfonyl]phenyl}methyl)pyridine-3-carboxamide] | – | – | 20 to 200 | < 20 | – |
| COc1ncc(-c2ccn3nc(N)nc3c2)nc1C(=O)NCc1cc(OC(F)(F)F)ccc1F [Example 384, 6-(2-amino-[1,2,4]triazolo[1,5-a]pyridin-7-yl)-N-(2-fluoro-5-(trifluoromethoxy)benzyl)-3-methoxypyrazine-2-carboxamide] | > 200 | 20 to 200 | – | – | – |
| Cc1nc(C)c(-c2ccn3nc(N)nc3c2)cc1C(=O)NCc1cc(F)cc(F)c1OCC1CCCC1 [Example 188, 5-{2-amino-[1,2,4]triazolo[1,5-a]pyridin-7-yl}-N-{[2-(cyclopentylmethoxy)-3,5-difluorophenyl]methyl}-2,6-dimethylpyridine-3-carboxamide] | – | – | – | < 20 | < 20 |
| Cc1ncc(-c2ccn3nc(N)nc3c2)cc1C(=O)NCc1c(F)cc(F)cc1OCC1CCCC1 [Example 228] | – | – | 20 to 200 | < 20 | – |
| COc1ncc(-c2ccn3nc(N)nc3c2)cc1C(=O)N1CCCC(Sc2ccccc2)C1 (centres unmarked) [Example 424, (5-(2-amino-[1,2,4]triazolo[1,5-a]pyridin-7-yl)-2-methoxypyridin-3-yl)(3-(phenylthio)piperidin-1-yl)methanone] | – | 20 to 200 | 20 to 200 | – | – |
| CC(CCNC(=O)c1ccnc(-c2ccn3nc(N)nc3c2)c1)c1ccccc1 (centres unmarked) [Example 72, 2-{2-Amino-[1,2,4]triazolo[1,5-a]pyridin-7-yl}-N-(3-phenylbutyl)pyridine-4-carboxamide] | > 200 | 20 to 200 | – | – | – |
| Cc1ncc(-c2ccn3nc(N)nc3c2)cc1C(=O)NCc1ccc(F)cc1OCC1CCCC1 [Example 18, 5-{2-Amino-[1,2,4]triazolo[1,5-a]pyridin-7-yl}-N-{[2-(cyclopentylmethoxy)-4-fluorophenyl]methyl}-2-methylpyridine-3-carboxamide] | > 200 | 20 to 200 | – | – | – |
| [2H]C([2H])(NC(=O)c1cc(-c2ccn3nc(N)nc3c2)c(C)nc1C)c1cc(OC(F)(F)F)ccc1F [Example 191] | – | – | – | < 20 | < 20 |
| COc1ncc(-c2ccn3nc(N)nc3c2)cc1C(=O)NCc1ncccc1OC1CCCC1 [Example 141, 5-{2-amino-[1,2,4]triazolo[1,5-a]pyridin-7-yl}-N-{[3-(cyclopentyloxy)pyridin-2-yl]methyl}-2-methoxypyridine-3-carboxamide] | – | – | 20 to 200 | < 20 | – |
| COc1nc(C)c(-c2ccn3nc(N)nc3c2)cc1C(=O)NCc1cc(F)cc(F)c1OCC1CC1 [Example 9, 5-{2-Amino-[1,2,4]triazolo[1,5-a]pyridin-7-yl}-N-{[2-(cyclopropylmethoxy)-3,5-difluorophenyl]methyl}-2-methoxy-6-methylpyridine-3-carboxamide] | – | – | – | < 20 | < 20 |
| C[C@@H](NC(=O)c1cc(-c2ccn3nc(N)nc3c2)cnc1Cl)c1cc(OC(F)(F)F)ccc1F [Example 324, (R)-5-(2-amino-[1,2,4]triazolo[1,5-a]pyridin-7-yl)-2-chloro-N-(1-(2-fluoro-5-(trifluoromethoxy)phenyl)ethyl)nicotinamide] | – | – | 20 to 200 | < 20 | – |
| CCOc1ncc(-c2ccn3nc(N)nc3c2)cc1C(=O)NCc1cc(F)cc(F)c1OCC1CCCC1 [Example 14, 5-{2-Amino-[1,2,4]triazolo[1,5-a]pyridin-7-yl}-N-{[2-(cyclopentylmethoxy)-3,5-difluorophenyl]methyl}-2-ethoxypyridine-3-carboxamide] | – | – | 20 to 200 | < 20 | – |
| COc1nc(C)c(-c2ccn3nc(N)nc3c2)cc1C(=O)NCc1ccccc1OCC(C)C [Example 327, 5-(2-amino-[1,2,4]triazolo[1,5-a]pyridin-7-yl)-N-(2-isobutoxybenzyl)-2-methoxy-6-methylnicotinamide] | – | – | – | < 20 | < 20 |
| COc1ncc(-c2ccn3nc(N)nc3c2)cc1C(=O)NCc1ccccc1OCC(C)C [Example 340, 5-(2-amino-[1,2,4]triazolo[1,5-a]pyridin-7-yl)-N-(2-isobutoxybenzyl)-2-methoxynicotinamide] | – | – | 20 to 200 | < 20 | – |
| COc1ncc(-c2ccn3nc(N)nc3c2)cc1C(=O)NCc1cccc(F)c1OC1CCCC1 [Example 50, 5-{2-Amino-[1,2,4]triazolo[1,5-a]pyridin-7-yl}-N-{[2-(cyclopentyloxy)-3-fluorophenyl]methyl}-2-methoxypyridine-3-carboxamide] | – | – | 20 to 200 | < 20 | – |
| Cc1ncc(-c2ccn3nc(N)nc3c2)cc1C(=O)NCc1ncccc1OC1CCCC1 [Example 241, 5-{2-amino-[1,2,4]triazolo[1,5-a]pyridin-7-yl}-N-{[3-(cyclopentyloxy)pyridin-2-yl]methyl}-2-methylpyridine-3-carboxamide] | – | – | 20 to 200 | < 20 | – |
| COc1ncc(-c2ccn3nc(N)nc3c2)cc1C(=O)NCc1ccccc1Oc1ccccn1 [Example 109, 5-{2-amino-[1,2,4]triazolo[1,5-a]pyridin-7-yl}-2-methoxy-N-{[2-(pyridin-2-yloxy)phenyl]methyl}pyridine-3-carboxamide] | – | – | – | < 20 | < 20 |
| Cc1ncc(-c2ccn3nc(N)nc3c2)cc1C(=O)NCc1ccccc1OC(C)C [Example 35, 5-{2-Amino-[1,2,4]triazolo[1,5-a]pyridin-7-yl}-2-methyl-N-{[2-(propan-2-yloxy)phenyl]methyl}pyridine-3-carboxamide] | – | 20 to 200 | 20 to 200 | – | – |
| CCOc1ncc(-c2ccn3nc(N)nc3c2)cc1C(=O)NCc1ccccc1Sc1ccccc1CO [Example 275, 5-{2-amino-[1,2,4]triazolo[1,5-a]pyridin-7-yl}-2-ethoxy-N-[(2-{[2-(hydroxymethyl)phenyl]sulfanyl}phenyl)methyl]pyridine-3-carboxamide] | – | – | – | < 20 | < 20 |
| Cc1ncc(-c2ccn3nc(N)nc3c2)cc1C(=O)NCc1c(F)cccc1OC1CCCC1 [Example 247, 5-{2-amino-[1,2,4]triazolo[1,5-a]pyridin-7-yl}-N-{[2-(cyclopentyloxy)-6-fluorophenyl]methyl}-2-methylpyridine-3-carboxamide] | – | – | – | < 20 | < 20 |
| Nc1nc2cc(-c3cnc(N)c(C(=O)NCc4ccccc4Sc4ccccc4CO)c3)ccn2n1 [Example 62, 2-Amino-5-{2-amino-[1,2,4]triazolo[1,5-a]pyridin-7-yl}-N-[(2-{[2-(hydroxymethyl)phenyl]sulfanyl}phenyl)methyl]pyridine-3-carboxamide] | – | – | 20 to 200 | < 20 | – |
| COc1ncc(-c2ccn3nc(N)nc3c2)cc1C(=O)NCc1ccccc1OC1CCCC1 [Example 148, 5-{2-amino-[1,2,4]triazolo[1,5-a]pyridin-7-yl}-N-{[2-(cyclopentyloxy)phenyl]methyl}-2-methoxypyridine-3-carboxamide] | – | – | – | < 20 | < 20 |
| COc1ncc(-c2ccn3nc(N)nc3c2)cc1C(=O)NCc1ncccc1OCC1CC1 [Example 132, 5-{2-amino-[1,2,4]triazolo[1,5-a]pyridin-7-yl}-N-{[3-(cyclopropylmethoxy)pyridin-2-yl]methyl}-2-methoxypyridine-3-carboxamide] | – | 20 to 200 | 20 to 200 | – | – |
| Nc1nc2cc(-c3cc(C(=O)NCc4cc(OC(F)(F)F)ccc4F)cnc3Cl)ccn2n1 [Example 368, 5-(2-Amino-[1,2,4]triazolo[1,5-a]pyridin-7-yl)-6-chloro-N-(2-fluoro-5-(trifluoromethoxy)benzyl)nicotinamide] | – | – | 20 to 200 | < 20 | – |
| Cc1nc(C)c(-c2ccn3nc(N)nc3c2)cc1C(=O)NCc1c(F)cc(F)cc1OCC1CCCC1 [Example 177, 5-{2-amino-[1,2,4]triazolo[1,5-a]pyridin-7-yl}-N-{[2-(cyclopentylmethoxy)-4,6-difluorophenyl]methyl}-2,6-dimethylpyridine-3-carboxamide] | – | – | 20 to 200 | < 20 | – |
| CNc1ncc(-c2ccn3nc(N)nc3c2)cc1C(=O)NCc1ccccc1Sc1ccccc1CO [Example 57] | – | – | 20 to 200 | < 20 | – |
